Experimental data from the supplement of paper PMC12592484.

Legend:
Test in all cases: drug sensitivity score (DSS2, normalised partial AUC of dose-response, 72 h CellTiter-Glo viability) (DSS (dimensionless)); higher = more sensitive (stronger growth inhibition / cytotoxicity); extreme values may be limits of the assay
[1] = system: CAF#2 (primary prostate cancer-associated fibroblasts of iCAF-like type)
Procedure, shortened: (§1)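 In BREEZE, the drug sensitivity score was derived as a partial area under a fitted logistic dose–response curve over the log of that curve's upper asymptote; a higher score marks a more sensitive response. The input came from low-passage primary prostate cancer-associated fibroblasts, PF179T, WPMY-1, LNCaP and 22Rv1 cells, each seeded into 384-well plates with compounds pre-dispensed at five doses spanning a 10,000-fold range. CellTiter-Glo 2.0 luminescence after 72 h gave viability, which was normalized to vehicle and positive-control wells.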

[2] = system: CAF#6 (primary prostate cancer-associated fibroblasts of iCAF-like type)
Procedure, shortened: as §1

[3] = system: CAF#1 (primary prostate cancer-associated fibroblasts of myCAF-like type)
Procedure, shortened: as §1

[4] = system: CAF#4 (primary prostate cancer-associated fibroblasts of iCAF-like type)
Procedure, shortened: as §1

[5] = system: PF179T
Procedure, shortened: as §1

[6] = system: CAF#5 (primary prostate cancer-associated fibroblasts of myCAF-like type)
Procedure, shortened: as §1

[7] = system: CAF#3 (primary prostate cancer-associated fibroblasts of myCAF-like type)
Procedure, shortened: as §1

[8] = system: WPMY-1
Procedure, shortened: as §1

[9] = system: 22Rv1
Procedure, shortened: as §1

[10] = system: LNCAP
Procedure, shortened: as §1

[11] = system: CAF#7 (primary prostate cancer-associated fibroblasts of myCAF-like type)
Procedure, shortened: as §1

Compound	drug sensitivity score [1]	drug sensitivity score [2]	drug sensitivity score [3]	drug sensitivity score [4]	drug sensitivity score [5]	drug sensitivity score [6]	drug sensitivity score [7]	drug sensitivity score [8]	drug sensitivity score [9]	drug sensitivity score [10]	drug sensitivity score [11]
COc1ccc(C[C@H](NC(=O)[C@H](C)NC(=O)CN2CCOCC2)C(=O)N[C@@H](Cc2ccccc2)C(=O)C2(C)CO2)cc1 (stereo in doubt) [ONX-0914] (tested concentration range 1-10000 nM)	16	15	14	10.3	14.8	18.3	15.5	23.4	18	19.3	15.6
Cc1ccc(C(=O)N(CCCN)[C@@H](c2oc3cc(Cl)ccc3c(=O)c2Cc2ccccc2)C(C)C)cc1 (tested concentration range 0-100 nM)	7.1	1.6	1.6	2.5	2.9	4.3	0.4	4	3.6	19.3	1.3
CNS(=O)(=O)Nc1nccc(Cc2c(C)c3ccc(Oc4ncccn4)cc3oc2=O)c1F (tested concentration range 0.1-1000 nM)	0	0	0	0	0	0	0	0	0.2	1.1	0
C[C@@H](Oc1ccc2[nH]nc(/C=C/c3cnn(CCO)c3)c2c1)c1c(Cl)cncc1Cl (tested concentration range 0.1-1000 nM)	7.2	10.9	9.7	5.7	8.9	6.7	9.9	8	2.9	2.5	18.7
Cc1c(-c2c(-c3ccc(F)o3)sc3ncnc(O[C@H](Cc4ccccc4OCc4ccnn4CC(F)(F)F)C(=O)O)c23)ccc(OCCN2CCN(C)CC2)c1Cl (tested concentration range 0.1-1000 nM)	0	0	0	0	0	0	0	0	0.7	0	0
Cc1c(-c2ccc(N3CCc4cccc(C(=O)Nc5nc6ccccc6s5)c4C3)nc2C(=O)O)cnn1CC12CC3CC(CC(C3)C1)C2 (tested concentration range 0.1-1000 nM)	0	4.2	0	3.1	0	0	0	0	0	4.4	0.4
CO[C@@H](C)Cn1c(=O)n(C)c2cnc3ccc(-c4cncc(C(C)(C)O)c4)cc3c21 (tested concentration range 0.2-2500 nM)	13.5	10.9	14.1	10.7	14.1	14.5	10.3	12	16.8	16.8	10.5
Cc1cccc(CC(=O)N2CCc3c2ccc(-c2cn(C)c4ncnc(N)c24)c3F)n1 (tested concentration range 0.2-2500 nM)	0	0	0	0	0	0	0	0	0.1	0.7	0
Cc1ncc(Cl)cc1NCc1ccc(C(=O)N[C@@H](CC2CCCC2)C(=O)NC2CC2)s1 (tested concentration range 0.5-5000 nM)	3	0	0	0.6	3.7	2.1	0.4	0	0	2	1.2
CC(C)Oc1ccc(C(=O)N[C@H](CNC(=O)CN(C)C)Cc2ccc(-c3cn4cccc([C@H](C)O)c4n3)cc2)cc1Cl (tested concentration range 1-10000 nM)	9.8	3.2	1.4	5.5	9	3	2.5	24.5	10.9	19.1	2.4
CC[C@@H]1[C@H](F)C(=O)N[C@@H]1COc1nccc2cc(C(N)=O)c(OC)cc12 (tested concentration range 1-10000 nM)	0.4	0	0	0	0	0	0	0	1.4	1.6	0.1
CCc1cncnc1N1CCN(Cc2nc3ccc(C(F)(F)F)cc3[nH]2)CC1 (tested concentration range 1-10000 nM)	2.4	0.5	1.8	1.1	0	1.6	7.6	1.7	2.9	4	0.9
CCn1c(-c2nonc2N)nc2c(C#CC(C)(C)O)ncc(OC[C@H]3CCCNC3)c21 (tested concentration range 1-10000 nM)	3.3	0	3.8	1.2	1.9	1.6	0	0	5.4	25.7	0
CCn1c(-c2nonc2N)nc2cnc(Oc3cccc(NC(=O)c4ccc(OCCN5CCOCC5)cc4)c3)cc21 (tested concentration range 1-10000 nM)	3.3	2.8	3.2	0.6	0.9	1.2	0.2	6.8	4.7	8.1	4.7
CN(C)CC#Cc1ccc(OCCCc2sc(N3CCc4cccc(C(=O)Nc5nc6ccccc6s5)c4C3)nc2C(=O)O)c(F)c1 (tested concentration range 1-10000 nM)	2.3	5.6	2.7	14.4	0	3.2	0.2	1.4	0	6.1	4.1
CN1CCN(C2CCC(n3cc(-c4ccc(Oc5ccccc5)cc4)c4c(N)ncnc43)CC2)CC1 (stereo unspecified) (tested concentration range 1-10000 nM)	14.6	11.7	12.2	13.6	9.3	11.5	11.2	10.1	9.1	8.3	16.6
CNc1nc(-c2ccc3c(N)n[nH]c3c2)cc(N2C[C@@H](C(=O)NC3CCCCC3)CC[C@H]2C)n1 (tested concentration range 1-10000 nM)	1.1	4	4	2.4	0	5.8	6.6	1.4	6.4	7.5	3.8
CNc1ncc2cc(-c3cc(NC(=O)NCCC(C)(C)C)c(F)cc3C)c(C)nc2n1 (tested concentration range 1-10000 nM)	11	6.3	7.4	9.2	6.7	7.2	1.6	5.6	8.5	10.4	8
COc1ccc(Cn2ccc3ccc(C(=O)NO)cc32)cc1 (tested concentration range 1-10000 nM)	3.1	4.1	2.8	1.4	4.8	1.4	2.9	2.8	2.8	5.5	4
Cc1c(Cn2c(C)nc3c(C(=O)O)cc(N4CCOCC4)cc32)cccc1C(F)(F)F (tested concentration range 1-10000 nM)	0.4	2.1	2.6	1.3	2.1	0.1	6.2	0	0	12.4	5.1
Cn1cc(-c2ccc(F)c(C(F)(F)F)c2)nc1C1CCN(c2ncnc3[nH]ncc23)CC1 (tested concentration range 1-10000 nM)	1	0.5	1.3	1.4	0	1.5	0	0	2.3	7.1	0.4
N#Cc1ccc(COC[C@H]2O[C@@H](n3c(NCc4ccc(Cl)c(Cl)c4)nc4c(N)ncnc43)[C@H](O)[C@@H]2O)cc1 (tested concentration range 1-10000 nM)	5.7	1.8	3.7	5.7	4.4	4.7	0.6	1.9	6.9	5	4.5
Nc1nccc(-c2c(-c3ccc(F)cc3)ncn2C2CCCCC2)n1 (tested concentration range 1-10000 nM)	0.6	0	0	0.1	0	0	2.1	0	6.1	4.6	0
Nc1ncnc2c1c(COc1cccc(Cl)c1)nn2C1CCOCC1 (tested concentration range 1-10000 nM)	2.1	0.6	2.5	0	0	1.8	2.8	0	0	2.3	1
O=C(O)c1ccc(-c2c[nH]c3ncc(-c4ccccc4)cc23)cc1C1CCCC1 (tested concentration range 1-10000 nM)	2.3	0	0	0	0.1	0.8	0	2.4	0	0	0
O=c1[nH]c(C2CCCN2)nc2c1oc1ccc(Cl)cc12 (stereo unspecified) (tested concentration range 1-10000 nM)	0	0	0	0	0	0	1.6	3.3	0.6	2.7	0
CC1(C)OCCn2c1nc1c(N3CCOCC3)nc(-c3cnc(N)nc3)nc12 [Paxalisib] (tested concentration range 1-10000 nM)	–	–	16	13	–	18.3	–	–	18.1	13.5	–
